# Test results: patent publication US7041821B2, “Synthetic molecules for labeling histidine-rich proteins” (The Regents of the University of California, priority 2003, dated 2006)
# Where two headings read alike, the source gives them in different places.
# Key:
# [1] = tested on: his6-CFP; settings: +Zn2+ + his6-CFP: 1 μM dye, pH 7.2, 100 μM ZnCl2 and 1 μM his6-CFP
# Experimental: Excitation (ex), emission (em) maxima (in nm) and fluorescence quantum yields (φ) of 1 μM dye in 100 mM KCl 10 mM MOPS pH 7.2 with 50 μM EDTA (—Zn^2+), 100 μM ZnCl2 (+Zn^2+) or 100 μM ZnCl2 and 1 μM his6-CFP (+Zn^2++his6-CFP).
# [2] = remark: listed apart in the source
# Experimental: Formation of the Zn-complex can be monitored by absorbance or fluorescence emission and excitation shifts. Aliquots of a dye stock solution in DMSO were added to 500 μL of buffers containing 10 nM, 100 nM, 1 μM or 10 μM free zinc (controlled by Ca^2+/Zn^2+ EGTA and 10 mM HEPES; see Walkup, G. K., Burdette, S. C., Lippard, S. J., and Tsien, R. Y., J. Am. Chem. Soc. 2000, 122, 5644–5645) or zinc free (10 mM HEPES, 1 mM EDTA buffer) solutions to yield approximately 1–1.5 μM dye solution (ε˜65,500 M^−1 cm^−1).
# [3] = tested on: HEK293 cells expressing a His6-tagged test-protein
# Text: A gene encoding the peptide […] (His6-) was created by the polymerase chain reaction (PCR), using pRSETB template (Invitrogen). BglII and SacII restriction sites were incorporated at the 5′ and 3′ ends of the gene, by using the forward primer […] and reverse primer […]. For expression on the surface of mammalian cells, the gene was inserted into the pDisplay vector (Invitrogen) using the BglII and SacII restriction sites. This vector supplies the necessary sequences for entry into the secretory pathway and anchoring to the outer face of the plasma membrane.
# HEK 293 cells were plated onto sterilized glass cover slips on 2 cm dishes or 10 cm plates and grown to 50–100% confluency in DMEM supplemented with 10% FBS at 37° C. in 6% CO2. Cells were transfected with FUGENE-6 transfection reagent (Roche Molecular Biochemicals). After 24 to 48 h incubation at 37° C. in culture medium, the cells were washed once with Hanks' balanced salt solution buffer (HBSS). Then 2 mL of the staining solution (HEPES buffer with 1 μM free Zn^2+ (pH 7.4), ˜1–1.5 μM of compound (I) (DMSO stock)) was added to the cells. After 1 min, the cells were washed twice with HBSS and imaged. Imaging experiments were performed with excitation at 540 nm (25 nm bandwidth), emission at 595 nm (50 nm bandwidth), and dichroic mirror at 560 nm for the Zn-compound (I); and excitation at 420 nm (20 nm bandwidth), emission at 475 nm (40 nm bandwidth) and dichroic mirror at 450 nm for CFP.
# (§1) A solution of Compound (I) in buffer containing 1 μM Zn^2+ was added extracellularly to intact HEK293 cells expressing a His6-tagged test-protein, targeted to the surface of the cell membrane.
# [4] = tested on: poly-histidine peptide
# Experimental: as §1
# [5] = +Zn2+: 1 μM dye, pH 7.2, 100 μM ZnCl2
# [6] = −Zn2+: 1 μM dye, 100 mM KCl 10 mM MOPS pH 7.2, 50 μM EDTA
Compound,Emission maximum (em) [5] [nm],Excitation maximum (ex) [5] [nm],Fluorescence quantum yield (φ) [5],Emission maximum (em) [6] [nm],Excitation maximum (ex) [6] [nm],Fluorescence quantum yield (φ) [6],Emission maximum (em) [1] [nm],Excitation maximum (ex) [1] [nm],Fluorescence quantum yield (φ) [1],Extinction coefficient ε ([2]; dye solution in HEPES buffers),Fluorescence quantum yield ([2]; virtually unchanged between 0 and 1 μM free Zn2+ (FIG. 2)),"Speed of staining ([3]; intact HEK293 cells, 1 μM Zn2+)","Staining of non-transfected cells ([3]; neighboring non-transfected HEK293 cells, same staining)",Reversibility of staining ([3]; washing with EDTA solutions (FIG. 7)),"Staining of transfected cells ([3]; ~1–1.5 μM compound, 1 μM free Zn2+, added extracellularly, 1 min, washed)",Fluorescence anisotropy binding [4]
"2′,7′-bis(2-dimethylaminoethanesulfonamido)-4′,5′-difluorofluorescein [Compound II]",560,523,0.37,544,517,0.47,560,531,0.19,–,–,–,–,–,–,–
"2′,7′-bis(2-pyridylsulfonamido)-4′,5′-difluorofluorescein [Compound IV]",566,533,0.35,547,525,0.60,570,545,0.08,–,–,–,–,–,–,–
"Cc1c(O)c(NS(=O)(=O)c2ccccn2)cc2c1Oc1c(cc(NS(=O)(=O)c3ccccn3)c(O)c1C)C21OC(=O)c2ccccc21 [Compound I, 2′,7′-Bis(pyridyl-2-sulfonamido)-4′,5′-dimethylfluorescein]",557,523,0.34,545,518,0.40,560,536,0.09,"~65,500 M^−1 cm^−1",~0.4,stains cells virtually instantaneously,no staining,staining is reversible by washing with EDTA solutions,transfected cells clearly showed membrane specific fluorescent staining,clearly indicate binding to a poly-histidine peptide
